Read-outs that look alike come from different tables or passages of the source.
What was measured:
[1] = tested on: wild-type zebrafish larvae heart; format: in vivo, zebrafish (Danio rerio)
Description: Experiments were performed on wild-type (WT, AB strain) zebrafish (Danio rerio). The fish were maintained in accordance with the principles established by the NIH. […] The fish were kept in swimming medium (E3 medium) in small aquaria at 28° C. and maintained under a 14h: 10h light:dark cycle. The zebrafish larvae were maintained in the presence of 0.1% methylene blue (M9140, Sigma-Aldrich Inc, Israel) at 28° C. All measurements were taken in embryos at 72 hours post fertilization (hpf).
Ouabain, bufalin, digoxin, acetylcholine, carbachol, […] (pp2) and U0126 (1,4-diamino-2,3-dicyano-1,4-bis(2-aminophenylthio)butadiene) were purchased from Sigma-Aldrich Inc., Israel. The compounds were dissolved in egg water (0.3 g Instant Ocean Salt in distilled water) to a final selected concentration, as specified in the following examples. […]
Filming process Zebrafish larvae heart imaging was performed using an Olympus CKX41 (Japan) […] microscope with ×10 or ×20 magnification, and integrated incandescent illumination. A FastCam imi-tech (Korea) high speed digital camera with 640×480 pixel gray scale image sensor was mounted on the microscope, using ImCam software (IMI Technology, Co. Ltd) for high speed video recording. The larvae were anesthetized by placing them in filming/anesthetizing medium. Each larva in 0.5 ml filming/anesthetizing medium was transferred to a 96-well tissue culture plate at room temperature and sequential images of the heart were obtained, with the larvae positioned on their side, at 80 fps during 10 seconds with a shutter speed of 0.016 seconds.
Physiological parameters of cardiovascular performance, as indicated hereinbelow, were evaluated in the zebrafish larvae. Image analysis applications ImageJ (NIH, USA) were used, allowing the delineation of the endomyocardial border at the end of systole or end of diastole to define the ventricular area. Sequential still frames were analyzed to capture ventricular end-systole and end-diastole images. End Systolic Area (ESA, FIG. 1B) and End Diastolic Area (EDA, FIG. 1C) were used to calculate Fractional Area Change (FAC), according to the equation: FAC=(EDA-ESA)/EDA*100. The Ejection Fraction (EF) was determined by an independent estimate of ventricular volume. This was achieved by placing scan lines across the midventricular short axis (SA) and long axis (LA) at the end of systole (FIG. 1D) and diastole (FIG. 1E). […] EF was then calculated according to the equation: EF=(EDV-ESV)/EDV*100. Heart rate (HR) was measured in beats per minute. Cardiac output (CO) was calculated according to the equation: CO=(EDV-ESV)*HR. A minimum of five sequential pairs of systolic and diastolic cycles were measured and analyzed in 9-12 larvae for each treatment.

[2] = tested on: Ca^2+ transients in acc mutant zebrafish isolated adult heart; assay: Ca^2+ transients in acc mutant zebrafish isolated adult heart; settings: for Amplitude (Maximal deflection from baseline) / Area (Area under the transient relative to baseline) / Decay slope (−Δ Fluorescence in the linear phase/sec) / Rate / Rise slope (+Δ Fluorescence in the linear phase/sec): Acc mutant, Ouabain 200 μM, MK-2206 1 nM
Description: Spontaneous Ca^2+ transients were measured in isolated hearts from adult zebrafish. The zebrafish were stunned by a blow to the head and the hearts were removed quickly and placed in Dulbecco's Modified Eagle's Medium (DMEM) containing 10% Fetal Bovine Serum (FBS) at room temperature. A total 3-5 hearts were placed in a small Petri dish containing 100 μl Krebs-Ringer's solution (119 mM NaCl, 2.5 mM KCl, 1 mM NaH2PO4, 2.5 mM CaCl2, 1.3 mM MgCl2, 20 mM HEPES and 11 mM D-glucose) with 0.01 mM Fura-2 AM (Biotium, Inc., CA, USA) in DMEM-FBS. Following incubation for 10 min (37° C., 5% CO2), 150 μl of Krebs-Ringer's solution were added to the Petri dish which was incubated for an additional 30 minutes. The dye was removed from the solution by two incubations (10 minutes each, room temperature) in DMEM-FBS solution. Intracellular Ca^2+ transients were measured in stabilizing medium containing 1% low-melt agarose in Krebs-Ringer's solution. The hearts were kept for 30 minutes in the presence of MK-2206 (or saline) and then underwent excitation/emission cycles for 2 minutes at 340 and 380 nm with 510 nm emission using a PTI fluorimetric system (Photon Technology International, Madison, USA). Ouabain was then added and the excitation/emission cycles were monitored for 8 minutes. The Ca^2+ levels are presented as the ratio of 340/380 nm fluorescence emission.

[3] = tested on: LAD-ligated rats; assay: Heart contractility (echocardiography: SF, HR) in LAD-ligated rats; format: in vivo, rat; settings: for effect on heart rate: 24 hours, 3 and 6 days post MI; for SF improvement relative to 24 hours post MI: ouabain 0.8 mg/kg/day, MK-2206 12 mg/kg/day, 3, 6 and 10 days post MI
Description: Male Wister rats (150-175 g body weight) were used. Left anterior descending artery (LAD)-ligation was performed in all animals. The rats were divided to four groups, each treated with subcutaneous injection with saline (0.5 ml/kg/day), ouabain (0.8-8 mg/kg/day), MK-2206 (12 mg/Kg/day) or a combination of MK-2206 and ouabain. All injected solutions contained 9% DMSO. Heart contractility in-vivo was monitored using echocardiography. At the end of the treatment period, animals were sacrificed and heart and blood samples were harvested for analysis. Blood samples were also collected (from the eye) at baseline and 24 hours post myocardial infarction (MI).
Rats were anesthetized with 10% ketamine, 2% xylazine (0.1 ml/kg) and ventilated with a small animal respirator (Harvard). The heart was exposed via left sternotomy, and the LAD-ligation was induced by placing a 6-0 silk suture around the left anterior descending coronary artery near the atrial auricle. The animals were allowed to recover and treated with 0.5 mg/100 g Tramadol Hydrochloride by subcutaneous injection for post-operative analgesia.
Echocardiograms were performed on rats anesthetized with 2% isoflurane at baseline, at 24 hours, as well as at 3, 6 and 10 days post LAD-ligation, using a VEVO 770 equipped with a 30 MHz linear transthoracic transducer (VisualSonics). Measurements were performed in triplicate using the leading-edge convention for myocardial borders as defined by the […]. Left ventricular, end-diastolic and end-systolic diameters (LVEDD and LVESD), diastolic and systolic interventricular septal diameters (IVSD and IVSS), left ventricular diastolic area (LVEDA), left ventricular systolic area (LVESA), and heart rate (HR) were measured. Shortening fraction (SF) was calculated by the equation: SF (%)=(LVEDD−LVESD)/LVEDD×100. Heart rate was measure by peak intervals of the echocardiography measurements. All measurements were performed by an individual who was blind to the entire experimental protocol and animal treatments.

[4] = wt larvae, 10 nM MK-2206, 1 nM CS

Compound	effect of inhibitor alone on heart function / basal contractility ([1]; PP2 50 nM, U0126 1 μM, MK-2206 10 nM for 2 hours)	effect on CS-induced increase in heart contractility (FAC and EF) compared with CS in the absence of the inhibitor [1, 4]	effect on heart rate of MK-2206 with CS [1, 4]	Amplitude (Maximal deflection from baseline) [2]	Area (Area under the transient relative to baseline) [2]	Decay slope (−Δ Fluorescence in the linear phase/sec) [2]	Rate [2] [wave/min]	Rise slope (+Δ Fluorescence in the linear phase/sec) [2]	effect on heart rate [3]	SF improvement relative to 24 hours post MI [3]	maximal increase in CO ([1]; 0.2 nM, 90 minutes) [%]	effect on force of contraction ([1]; 1 nM)	effect on heart rate ([1]; 1 nM)	effect on heart rate ([1]; 0.05-0.4 nM, 90 minutes)	concentration producing a significant increase in heart contractility ([1]; added to larvae swimming medium) [nM]	effect on heart force of contraction (FAC, EF, CO) ([1]; low concentrations (ouabain 0.05-0.4 nM), 90 minutes)	changes in Ca^2+ transients parameters ([2]; acc, 200 μM ouabain)	changes in Ca^2+ transient parameters in the presence of Akt inhibitor ([2]; acc, 200 μM ouabain, Akt inhibitor)	effect on shortening fraction (SF) following LAD-ligation ([3]; 0.8 mg/kg/day, by itself)	effect on shortening fraction (SF) following LAD-ligation ([3]; 8 mg/kg/day)
NC1(c2ccc(-c3nc4ccn5c(=O)[nH]nc5c4cc3-c3ccccc3)cc2)CCC1 [MK-2206]	did not affect heart contractility parameters	doubling of the CS-induced increase in heart contractility	not accompanied by any effect on heart rate	1.85 ± 0.05	2.79 ± 0.23	1.72 ± 0.22	25 ± 3	0.51 ± 0.04	did not affect significantly heart rate	did not result in SF improvement	–	–	–	–	–	–	–	–	–	–
C[C@@H]1O[C@@H](O[C@H]2C[C@@H](O)[C@]3(CO)[C@H]4[C@H](O)C[C@]5(C)[C@@H](C6=CC(=O)OC6)CC[C@]5(O)[C@@H]4CC[C@]3(O)C2)[C@H](O)[C@H](O)[C@H]1O [ouabain, 3-(alpha-L-Rhamnopyranosyloxy)-1beta,5beta,11alpha,14,19-pentahydroxy-5beta-card-20(22)-enolide]	–	–	–	1.67 ± 0.15	2.54 ± 0.56	1.92 ± 0.46	35 ± 8.4	0.47 ± 0.1	did not affect significantly heart rate	did not result in SF improvement	38±3.68	increased significantly the force of contraction	without affecting heart rate	no change in heart rate	0.1	significant increase in the heart force of contraction in a dose-dependent manner	did not result in any changes in the Ca^2+ transients parameters	did not cause any changes in Ca^2+ transient parameters	did not increase SF	significantly increased the SF of the heart starting at the 3rd day of treatment

Reference: patent publication US20180369264A1, “COMBINATION OF A CARDIAC STEROID AND AN AKT INHIBITOR FOR THE TREATMENT OF CARDIOVASCULAR DISEASES AND DISORDERS” (YISSUM RESEARCH DEVELOPMENT COMPANY OF THE HEBREW …, priority 2015, published 2018)
